#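 Cultured in 96-well plates, cells were exposed to test compound for 48 hours across five concentrations. GI50 marks 50% less growth. TGI is the concentration that stops growth completely.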
# How the values were obtained:
# Experiment in all cases: NCI-60 cell line screen, 48 h
# [1] = system: KM12 colon
# [2] = system: SF-539 CNS
# [3] = system: NCI-H460 lung
# [4] = system: IGROV1 ovarian
# [5] = system: UACC-257 melanoma
# [6] = system: ACHN renal
# [7] = system: HL-60(TB) leukemia
# [8] = system: SW-620 colon
# [9] = system: BT-549 breast
# [10] = system: SF-268 CNS
# [11] = system: SF-295 CNS
# [12] = system: NCI-H226 lung
# [13] = system: SNB-19 CNS
# [14] = system: 786-0 renal
# [15] = system: SK-MEL-5 melanoma
# [16] = system: HS 578T breast
# [17] = system: MALME-3M melanoma
# [18] = system: COLO 205 colon
# [19] = system: TK-10 renal
# [20] = system: MDA-MB-435
# [21] = system: T-47D breast
# [22] = system: U251 CNS
# [23] = system: HT29 colon
# [24] = system: OVCAR-5 ovarian
# [25] = system: HCC-2998 colon
# [26] = system: HCT-15 colon
# [27] = system: UO-31 renal
# [28] = system: K-562 leukemia
# [29] = system: SN12C renal
# [30] = system: DU-145 prostate
# [31] = system: SR leukemia
# [32] = system: CAKI-1 renal
# [33] = system: M14 melanoma
# [34] = system: A549 NSCLC
# [35] = system: MOLT-4 leukemia
# [36] = system: MDA-MB-231 breast
# [37] = system: PC-3 prostate
# [38] = system: OVCAR-4 ovarian
# [39] = system: SNB-75 CNS
# [40] = system: MCF7 breast
# [41] = system: HOP-62 NSCLC
# [42] = system: A498 renal
# [43] = system: SK-OV-3 ovarian
# [44] = system: SK-MEL-2 melanoma
# [45] = system: SK-MEL-28 melanoma
# [46] = system: NCI-H23 lung
# [47] = system: LOX IMVI melanoma
# [48] = system: OVCAR-3 ovarian
# [49] = system: UACC-62 melanoma
# [50] = system: NCI/ADR-RES ovarian
# [51] = system: RPMI-8226 leukemia
# [52] = system: CCRF-CEM leukemia
# [53] = system: OVCAR-8 ovarian
# [54] = system: HCT-116 colon
# [55] = system: RXF 393 renal
# [56] = system: EKVX NSCLC
# [57] = system: NCI-H522 lung
# [58] = system: HOP-92 NSCLC
compound,measurement,setting,value
COc1cc2cn3c4ccc(O)cc4nc(N)c3c2cc1OC,GI50,[1],0.885 µM
same,TGI,[1],4.48 µM
same,GI50,[2],0.2 µM
same,TGI,[2],2.39 µM
same,GI50,[3],0.289 µM
same,TGI,[3],2.36 µM
same,GI50,[4],0.706 µM
same,TGI,[4],15.1 µM
same,GI50,[5],1.39 µM
same,TGI,[5],6.94 µM
same,GI50,[6],0.191 µM
same,TGI,[6],2.77 µM
same,GI50,[7],0.887 µM
same,TGI,[7],2.41 µM
same,GI50,[8],0.119 µM
same,TGI,[8],16 µM
same,GI50,[9],1.61 µM
same,TGI,[9],8.96 µM
same,GI50,[10],0.149 µM
same,TGI,[10],15.1 µM
same,GI50,[11],0.265 µM
same,TGI,[11],11.5 µM
same,GI50,[12],0.201 µM
same,TGI,[12],3.54 µM
same,GI50,[13],0.211 µM
same,TGI,[13],16.7 µM
same,GI50,[14],0.675 µM
same,TGI,[14],3.05 µM
same,GI50,[15],0.0734 µM
same,TGI,[15],0.505 µM
same,GI50,[16],0.626 µM
same,TGI,[16],22.2 µM
same,GI50,[17],0.792 µM
same,TGI,[17],16.8 µM
same,GI50,[18],0.342 µM
same,TGI,[18],6.6 µM
same,GI50,[19],1.54 µM
same,TGI,[19],9.55 µM
same,GI50,[20],0.0195 µM
same,TGI,[20],12.8 µM
same,GI50,[21],0.435 µM
same,TGI,[21],16.4 µM
same,GI50,[22],0.11 µM
same,TGI,[22],8.32 µM
same,GI50,[23],0.714 µM
same,TGI,[23],4.57 µM
same,GI50,[24],2.6 µM
same,TGI,[24],14.1 µM
same,GI50,[25],0.606 µM
same,TGI,[25],7.29 µM
same,GI50,[26],0.721 µM
same,TGI,[26],12.1 µM
same,GI50,[27],0.235 µM
same,TGI,[27],2.48 µM
same,GI50,[28],0.0348 µM
same,TGI,[28],3.6 µM
same,GI50,[29],0.295 µM
same,TGI,[29],13 µM
same,GI50,[30],0.253 µM
same,TGI,[30],5.75 µM
same,GI50,[31],0.0119 µM
same,TGI,[31],1.39 µM
same,GI50,[32],0.299 µM
same,TGI,[32],3.22 µM
same,GI50,[33],0.167 µM
same,TGI,[33],8.33 µM
same,GI50,[34],0.839 µM
same,TGI,[34],12.9 µM
same,GI50,[35],0.483 µM
same,TGI,[35],4.33 µM
same,GI50,[36],2 µM
same,TGI,[36],15.6 µM
same,GI50,[37],0.474 µM
same,TGI,[37],14.7 µM
same,GI50,[38],0.651 µM
same,TGI,[38],12.4 µM
same,GI50,[39],0.0886 µM
same,TGI,[39],7.49 µM
same,GI50,[40],0.174 µM
same,TGI,[40],4.15 µM
same,GI50,[41],0.375 µM
same,TGI,[41],7.67 µM
same,GI50,[42],0.141 µM
same,TGI,[42],1.06 µM
same,GI50,[43],0.211 µM
same,TGI,[43],10.8 µM
same,GI50,[44],1.89 µM
same,TGI,[44],7.61 µM
same,GI50,[45],0.0518 µM
same,TGI,[45],15.8 µM
same,GI50,[46],0.968 µM
same,TGI,[46],4.88 µM
same,GI50,[47],0.0621 µM
same,TGI,[47],1.79 µM
same,GI50,[48],0.231 µM
same,TGI,[48],3 µM
same,GI50,[49],0.0705 µM
same,TGI,[49],1.63 µM
same,GI50,[50],1.92 µM
same,TGI,[50],17.3 µM
same,GI50,[51],1.25 µM
same,TGI,[51],8.32 µM
same,GI50,[52],0.181 µM
same,TGI,[52],7.58 µM
same,GI50,[53],0.773 µM
same,TGI,[53],12.6 µM
same,GI50,[54],0.0931 µM
same,TGI,[54],1.72 µM
same,GI50,[55],0.283 µM
same,TGI,[55],2.5 µM
same,GI50,[56],2.79 µM
same,TGI,[56],15.4 µM
same,GI50,[57],0.0713 µM
same,TGI,[57],1.91 µM
same,GI50,[58],0.669 µM
same,TGI,[58],8.06 µM

# — PubChem BioAssay (NCI)
